These results are taken from ChEMBL document CHEMBL3507680, “University of Dundee, Gates Library screen for HepG2 cell viability”.

A short description of the data set: Human HepG2 cell viability assay in 384 well format. Details: dose 125 nL, time 70.5 hour; concentration not given beside the values. The settings on record: HepG2 cells, read-out: Inhibition. The format is toxicity, cell-based.
With `CC(C)(C)N1CC(C(=O)N2CC(Oc3ccc(F)cc3)C2)CC1=O` (centres undefined), the cytotoxicity at 70.5 h came out at 18.6%. In the case of `CCC1CN(c2cnn(-c3ccccc3)c(=O)c2Cl)CCO1` (centres undefined) it was -12.4%. In the case of `c1coc(CN2Cc3ccnn3CC(COCC3CC3)C2)c1` (centres undefined) it was -6.27%. To `Cc1ccc2c(c1C)OCC2NCc1cccc(C#N)c1` (centres undefined) belongs 1.34%; to `Cc1cc(CN2CCCC2c2c(C)nn(C)c2Cl)no1` (centres undefined), 4.73%. With `CC(C)n1nnc(CC(=O)NCC2(c3ccccc3F)CCCC2)n1`, the cytotoxicity at 70.5 h was -10.2%. For the compound `CC(C)c1cc(C(=O)NCCn2nc3ccccn3c2=O)n[nH]1`, the cytotoxicity at 70.5 h is -4.09%.

For the compound `CC(C)Cc1nc(CN2CCN(CC(O)c3ccccc3)CC2)no1` (centres undefined), the cytotoxicity at 70.5 h is -3.23%. In the case of `CCc1cnc(C)nc1NCC(O)CN1CCCCCC1` (centres undefined) it was -4.26%; in that of `Cc1ncccc1O[C@H]1CCN(C(=O)c2cccs2)CC[C@@H]1O`, -14.1%; in that of `O=C(NC1CC1)c1nc(COc2ccc3c(c2)OCO3)no1`, -9.12%. Regarding `Cc1cc(C(N)=O)c2c(Br)cccc2n1`, the cytotoxicity at 70.5 h is -13.6%. Turning to `COCCN1CCN(CCCS(C)(=O)=O)CC1C` (centres undefined), the cytotoxicity at 70.5 h was found to be 42.9%. In the case of `CCN(CC)C(=O)[C@@H]1C[C@@H](n2cc(-c3cccc(OC)c3)nn2)CN1`, the cytotoxicity at 70.5 h was -15.1%. For the compound `CCCNC(=O)c1ccc(-c2ccco2)[nH]c1=O`, the cytotoxicity at 70.5 h is -2.1%. As to `CC(C)c1nc(CN(C)C2CCN(CCS(C)(=O)=O)C2)no1` (centres undefined), the cytotoxicity at 70.5 h is -4.02%. `CCOCCOC(C)C(=O)Nc1ccc2c(ccn2CC)c1` (centres undefined): the cytotoxicity at 70.5 h is -6.19%.

Take `CN(C)c1cc(N2CCN(c3ccccn3)CC2)ncn1`: the cytotoxicity at 70.5 h is 22.1%. To `CN(C)c1nccc(C2CCCN2S(=O)(=O)c2cn(C)cn2)n1` (centres undefined) belongs -15.2%; to `COCCN1CCN(Cc2ccc(Cl)cc2)[C@H]2CS(=O)(=O)C[C@H]21`, 0.00609%. To `NC(=O)NCC1CCCCN1C(=O)c1ccc(Br)s1` (centres undefined) belongs -8.99%.

Turning to `CC(NC(=O)Nc1cc(F)cc(F)c1)c1nc[nH]n1` (centres undefined), the cytotoxicity at 70.5 h is -5.9%.

In the case of `CCn1cc(-c2cncn2CCc2ccc3c(c2)OCCO3)cn1`, the cytotoxicity at 70.5 h is 19.5%. For the compound `CC1CCCCN1CCNC(=O)c1ccn(-c2cccc(F)c2)n1` (centres undefined), the cytotoxicity at 70.5 h is -0.176%. Consider `OCC1CCN(c2ccc(NCc3ccsc3)nc2)CC1`, for which the cytotoxicity at 70.5 h is -5.76%. To `O=C(C1CN(Cc2ccoc2)CC12CCOCC2)N1CCCC1` (centres undefined) belongs 7.01%; to `CN(CCc1nc2cc(Cl)ccc2[nH]1)C(=O)c1ncn[nH]1`, -9.76%; to `COc1ccc2c(c1)CN(CC1CC1)C(=O)CCN2CC(C)(C)O`, 0.185%. In the case of `Cc1nc(C2CCCN2CC(=O)N2CCCc3ccccc32)no1` (centres undefined), the cytotoxicity at 70.5 h was -6.37%. To `Cc1cc(N2CCC(NCCOc3ccccc3)CC2)nc(C)n1` belongs 3.15%; to `Cc1nc(-c2ccc(C(=O)O)cc2)cc(C2CCCN(C(C)C)C2)n1` (centres undefined), 9.4%. To `CC(C)N1CCCC(C(=O)NCCc2csc(-c3ccncc3)n2)C1` (centres undefined) belongs 22%; to `Cc1cc(NC(=O)CN(C)C2CCCN(c3cccnn3)C2)n(C)n1` (centres undefined), -4.81%. To `CCOCCCNC(=O)c1nnn(Cc2ccccc2)c1OC` belongs -4.93%; to `Cc1cc(C)n(CC2CN(Cc3noc(C)n3)CCO2)n1` (centres undefined), 10.1%; to `Clc1ccccc1C1(c2ccnc(C3CC3)n2)CCNCC1`, 48.5%. Regarding `CN(Cc1cc[nH]n1)C(=O)c1ccc2c(c1)nc(N1CC[C@H](O)C1)n2C`, the cytotoxicity at 70.5 h is -1.12%. Take `O=C1[C@@H]2CCN(C3CCC3)C[C@@H]2OCCN1Cc1ccncc1`: the cytotoxicity at 70.5 h was determined as 20.5%.

For `O=C(NCCc1cccs1)NCC(O)c1cccc(F)c1` (centres undefined), the cytotoxicity at 70.5 h was -7.4%. Turning to `Cn1cc(Cl)cc1C(=O)N1CCC2(CCCN(CC3CCC3)C2=O)C1` (centres undefined), the cytotoxicity at 70.5 h worked out at 18.1%.

In the case of `CCn1ccc(NC(=O)C2CCC(=O)N2Cc2ccc(C)o2)n1` (centres undefined), the cytotoxicity at 70.5 h was -4.94%. Regarding `CCn1cc(CN2CCCC(c3[nH]ncc3-c3ccc(F)cc3)C2)cn1` (centres undefined), the cytotoxicity at 70.5 h is -19.8%.

As for `O=C(c1ccccn1)N1CCOC2(COCCN(Cc3cc[nH]n3)C2)C1` (centres undefined), the cytotoxicity at 70.5 h is -3.84%. In the case of `Cc1ncnc(NCCCN2CCCCC2CO)c1C` (centres undefined) it was -1.1%; in that of `Cc1n[nH]c(C(=O)N2CCCC(C)CC2)c1Br` (centres undefined), -5.15%. In the case of `CC(C)CC(NC(=O)c1cc(-c2cccn2C)n[nH]1)c1ncnn1C` (centres undefined) it was -1.67%. Take `c1cnc(N2CC3(CCN(Cc4cccnc4)C3)C2)nc1`: the cytotoxicity at 70.5 h worked out at 9.91%. In the case of `CC(C)C(=O)N1CCC(CNc2nc(C(C)C)nc3c2cnn3C)CC1` it was -9.27%; in that of `COc1cccc(C2SCC(=O)Nc3ccsc32)c1OC` (centres undefined), 1.7%; in that of `Cc1ccc(CN2CCc3ncc(CNC(=O)C4CCC4)n3CC2)o1`, -2.7%. To `CC(CC#N)n1ccc(C(F)(F)F)n1` (centres undefined) belongs -0.316%; to `CN(Cc1nnc2n1CCC2)C(=O)c1ccc2c(c1)OCCO2`, 44.2%. Turning to `O=S(=O)(c1cccc(F)c1)N1C[C@@H]2COC[C@]2(COCC2CC2)C1`, the cytotoxicity at 70.5 h was determined as 4.21%. In the case of `CN(CCc1ccccc1)C(=O)c1cc(CN2CCC(O)CC2)on1` it was -5.34%; in that of `CC(C)(C)C(=O)NCCC(=O)NC(C)(C)c1ccc2c(c1)OCO2`, -3.54%; in that of `Cc1nc(CN2CCN(C)C(=O)C23CCN(C(C)C)CC3)cs1`, -9.48%. On to `CC(C)(C)c1noc(CN2CCN(C(=O)c3ccco3)CC2)n1`, for which the cytotoxicity at 70.5 h worked out at 14.9%. Take `O=C(COCC1CCCO1)N1CCCN(Cc2ccccc2F)CC1` (centres undefined): the cytotoxicity at 70.5 h is -5.89%.

Regarding `Cc1cnccc1CN(C)C(=O)c1cccc(CCC(C)(C)O)c1`, the cytotoxicity at 70.5 h was -1.91%. Consider `CC(C)N1CC[C@H](c2nc3ccc(C(F)(F)F)cc3[nH]2)C1`, for which the cytotoxicity at 70.5 h was -5.84%. For `O=C(O)c1cc2c(nc1-c1ccsc1)CCN(C(=O)C1CC1)CC2`, the cytotoxicity at 70.5 h was -7.32%. In the case of `COc1ccc(F)cc1CN1CCCn2nc(CNS(C)(=O)=O)cc2C1` it was -5.04%; in that of `COCc1nc(C(=O)N2CCCC(n3ccnc3C)C2)cs1` (centres undefined), -18.6%. To `CCc1cnc(N)nc1N1CCN(C(C)=O)CC1` belongs -15.8%; to `Cc1nn(C)c(C)c1C1COCCN1C(=O)c1ccc(Cl)o1` (centres undefined), 10.5%; to `CC(C)c1ccc(CN2CCCC3(CC2)CN(C)C(=O)O3)cc1` (centres undefined), -1.93%. In the case of `CC(C)OCCCN(Cc1ccncc1)Cc1cccc(F)c1` it was 1.37%; in that of `Cc1cnc(NC(=O)N2CCC(N3CCCCC3=O)CC2)s1`, -1.3%. On to `Cc1nc(C)n(CC2CCCCN2Cc2nc(-c3ccoc3)no2)n1` (centres undefined), for which the cytotoxicity at 70.5 h is -11.8%.

For the compound `O=C(Cc1cccc(O)c1)N1CCCC(O)(CN2CCCC2)CC1` (centres undefined), the cytotoxicity at 70.5 h is -6.1%. To `CNc1cc(C2CCCN2S(=O)(=O)c2cccc(F)c2)ccn1` (centres undefined) belongs 14.1%. In the case of `CS(=O)(=O)N1C[C@@H](Oc2ccccn2)[C@H]2OCCC[C@H]21` it was -2.17%; in that of `CNS(=O)(=O)c1cccc(C(C)NCc2ccccc2OC)c1` (centres undefined), -4.76%; in that of `Cc1noc2ncnc(N3CCC(O)(Cn4ccnc4)CC3)c12`, 4.45%. Turning to `CN1C(=O)CC(C(=O)O)C12CCN(c1ccc3c(n1)CCCC3)CC2` (centres undefined), the cytotoxicity at 70.5 h is -5.19%. Turning to `CCOc1ccc(N2CCCN=C2NC(=O)c2ccc(Cl)cc2)cc1`, the cytotoxicity at 70.5 h is -1.22%.

For `CN(C)S(=O)(=O)N1CCC(C)(c2ncc(C(N)=O)s2)CC1`, the cytotoxicity at 70.5 h is -5.66%. To `c1cc(-c2cn[nH]c2)ccc1CN1CCCCC1` belongs 13.1%; to `CC(C)S(=O)(=O)NC(=O)c1cc(-c2cccc(Cl)c2)no1`, -11.8%. With `CN1CCC(C2CCN(Cc3cccc(-n4cccn4)c3)CC2)C1` (centres undefined), the cytotoxicity at 70.5 h is 2.02%. To `CCCN1CCC(NC(=O)c2csc(C)c2-c2ccc(C)cc2)CC1` belongs -0.127%. As for `O=C(c1c[nH]c(=O)c(Cl)c1)N1C[C@@H]2CC[C@H](C1)N(CC1CCC1)C2`, the cytotoxicity at 70.5 h was 19.9%. To `CC(Cn1cccn1)NC(=O)NCc1cccnc1` (centres undefined) belongs -9.07%; to `c1cc(-c2cnc(C3CCNCC3)cn2)n[nH]1`, 12.8%. In the case of `Cc1cc(C(=O)NCc2ccc(N3CCCC(C(N)=O)C3)cc2)on1` (centres undefined) it was -3.31%; in that of `COc1c(C2CCCN2C(=O)c2c(C)noc2C(C)C)c(C)nn1C` (centres undefined), -4.7%. On to `O=C1COc2c(cccc2C(=O)N2CCCC(n3cccn3)C2)N1` (centres undefined), for which the cytotoxicity at 70.5 h came to 23.6%. As for `CCc1noc(CS(=O)(=O)C/C=C/c2ccccc2)n1`, the cytotoxicity at 70.5 h was -10.8%.

On to `CNS(=O)(=O)CCn1cc(-c2cc3c(cc2OC)CCC3)nn1`, for which the cytotoxicity at 70.5 h is -7.97%.

As to `Cc1cnc(N2CCC[C@@H]3CN(CC(=O)N(C)C)C[C@@H]32)nc1`, the cytotoxicity at 70.5 h is -6.11%. To `Cc1cnc(C(=O)N2C[C@H]3CN(Cc4cccnc4)C[C@H]3C2)cn1` belongs 6.07%; to `O=C(O)c1nnn(-c2cc(F)cc(F)c2)c1-c1ccncc1`, 8.43%; to `CCc1ccc(S(=O)(=O)Nc2cnccc2C)s1`, -4.13%. To `CN(Cc1ccco1)[C@@H]1CN(Cc2ccncc2)C[C@@H]2CCCO[C@@H]21` belongs -13.9%; to `CN(C)c1ncc2c(n1)C1(CCN(Cc3ccccc3F)C1)COC2` (centres undefined), -7.03%; to `Cc1ccc(CN2CCCC(c3cncc(C)n3)C2)cn1` (centres undefined), -2.94%.

For `CC[C@@H]1N(Cc2ccoc2)CCC[C@]12CCC(=O)N2CCOC`, the cytotoxicity at 70.5 h was -5.78%.

Regarding `CN(C)C(=O)c1nn(C)c2c1CN(Cc1ccoc1)C2`, the cytotoxicity at 70.5 h is -7.04%. To `COc1nn(C)cc1C(=O)NCC1(O)CCc2ccccc2C1` (centres undefined) belongs -5.25%.
